According to patent EP0498680A1, “New beta-amino-alpha-hydroxycarboxylic acids and their use” (Sankyo Company Limited, priority 1991, dated 1992):

Tested on: HIV
Experiment: Inhibition of HIV proliferation in CEM cells
Format: cell-based
Settings: 1 µM (0.6 µg/ml) of the test compound, 1 week
Procedure: CEM cells were inoculated in growth medium as defined in a) above, to a density of 2 x 10⁴ cells/ml. The inoculum was then seeded with a similar volume of serial 1 : 3 dilutions of the viral stock [a filtered preparation of the 48-hour culture supernatant of Molt4/HTLVIIIB cells prepared as described in Test Example 3 a) above]. The seeded inoculum was then cultured at 37°C under a 5% carbon dioxide atmosphere in the presence of 1 µM of the test compound (compound no. 14). After 1 week, the culture was spun down and the supernatant was collected. HIV antigen in the supernatant was determined as described in b) above.

## (2S,3S)-[3-(N-3′-Hydroxyquinoxaline-2′-carbonyl-L-asparaginyl)amino-2-hydroxy-4-phenylbutyryl]-L-proline t-butyl ester [Compound No. 14]
  spread of HIV (HIV antigen in the supernatant): sufficient to block the spread of HIV almost completely
